Converted amounts (≈) assume the structure as drawn.
What follows are compounds tested on Mycobacterium tuberculosis (assay: Antimycobacterial activity against Mycobacterium tuberculosis H37Rv). Details: Mycobacterium tuberculosis, H37Rv; read-out: MIC.
Format: functional

SMILES	MIC
CC1=C(C)C(=O)C(CC[C@](C)(O)CCC[C@H](C)CCC[C@H](C)CCCC(C)C)=C(C)C1=O	25 µg/mL
O=C1c2c(O)ccnc2-c2nccc3c2c1nc1ccccc13	42 µM
CC(C)=CCc1c(O)cc(O)c(C(=O)/C=C/c2ccccc2)c1O	0.05 µg/mL
CC(C)=CCc1c(O)ccc(C(=O)/C=C/c2cc(O)c3c(c2)C=CC(C)(C)O3)c1O	30 µg/mL
CC1(C)Oc2cc(O)c(C(=O)/C=C/c3ccccc3)c(O)c2CC1O (configuration not stated)	0.05 µg/mL
CCOC(=O)/C=C/COc1ccc(/C=C/C(=O)/C=C(O)/C=C/c2ccc(OC/C=C/C(=O)OCC)c(OC)c2)cc1	7.18 µg/mL
COC1=CC(=O)c2cccc(O)c2C1=O	3.12 µg/mL
CC(=O)[C@]1(O)C(C)=C(C)C(=O)[C@@]12CC[C@](C)(CCC[C@H](C)CCC[C@H](C)CCCC(C)C)O2	30 µg/mL
CC(=O)[C@]1(O)C(C)=C(C)C(=O)[C@@]12CC[C@H](CCC[C@H](C)CCC[C@H](C)CCCC(C)C)O2	50 µg/mL
COc1ccc(CC(O)C(O)Cc2ccccc2)cc1 (configuration not stated)	30 µg/mL
CC(C)C1=C(O)C(=O)C2=C(C1=O)[C@H](O)[C@@H](O)[C@H]1C(C)(C)CCC[C@]21C	25 µg/mL
CC(=O)O[C@H]1C2=C(C(=O)C(O)=C(C(C)C)C2=O)[C@@]2(C)CCCC(C)(C)[C@@H]2[C@@H]1O	25 µg/mL
C=C(C)C(CC[C@@H](C)[C@H]1CC[C@@]2(C)[C@@H]3CC[C@H]4C(C)(C)[C@@H](O)CC[C@@]45C[C@@]35CC[C@]12C)OO (some centres not stated)	25 µg/mL
C[C@H](C/C=C/C(C)(C)OO)[C@H]1CC[C@@]2(C)[C@@H]3CC[C@H]4C(C)(C)[C@@H](O)CC[C@@]45C[C@@]35CC[C@]12C	25 µg/mL
CC(C)C1=C(O)C(=O)C2=C(C=C[C@H]3C(C)(C)CCC[C@]23C)C1=O	25 µg/mL
COc1cc(-c2ccccc2)nc2ccccc12	16 µg/mL
COC1=CC(=O)c2c(O)cccc2C1=O	30 µg/mL
C[C@@H]1C[C@H](C)C(=O)/C=C/C2[C@@H](O)C3OC4=C(C(=O)O[C@@]42C[C@H]3C)C1=O (single isomer, unassigned; (-))	7.2 µM
C=C[C@]1(C)C2=C3c4c([nH]c5cccc(c45)C(C)(C)[C@H]3C[C@H]1Cl)C(C)(C)C(C#N)=C2 [AMBIGUINE G NITRILE]	53.7 µM
O=C(O)CCCCCCCCCC(=O)C1=CCCC1 [ANTHELMINTHICINS A]	5.54 µM
O=C(CCCCCCCC[C@H]1C=CCC1)OCC(O)CO (some centres not stated) [ANTHELMINTHICINS B]	16.7 µM
CC[C@H](CC[C@@H](C)[C@H]1CC[C@H]2[C@@H]3CC=C4CC(=O)CC[C@]4(C)[C@H]3CC[C@]12C)C(C)C [BETA-SITOSTENONE]	39.5 µM
O=C(O)CCCCCCCCCCCC[C@@H]1C=CCC1 [CHAULMOOGRIC ACID]	16.8 µM
c1cc2c[n+](c1)CCCCCCCCCCCCc1ccc[n+](c1)CCCCCCCCCCCC2 [CYCLOSTELLETAMINES A]	32 µg/mL
c1cc2c[n+](c1)CCCCCCCCCCCCCc1ccc[n+](c1)CCCCCCCCCCCC2 [CYCLOSTELLETAMINES B]	4 µg/mL
c1cc[n+]2c(c1)CCCCCCCCCCCCC[n+]1cccc(c1)CCCCCCCCCCCCC2 [CYCLOSTELLETAMINES C]	4 µg/mL
c1cc2c[n+](c1)CCCCCCCCCCCCCCc1ccc[n+](c1)CCCCCCCCCCCC2 [CYCLOSTELLETAMINES D]	8 µg/mL

SMILES	MIC
c1cc2c[n+](c1)CCCCCCCCCCCCCCc1ccc[n+](c1)CCCCCCCCCCCCC2 [CYCLOSTELLETAMINES E]	11 µg/mL
c1cc2c[n+](c1)CCCCCCCCCCCCCCc1ccc[n+](c1)CCCCCCCCCCCCCC2 [CYCLOSTELLETAMINES F]	8 µg/mL
COc1cc(/C=C/C(O)=C/C(=O)/C=C/c2ccc(O)cc2)ccc1O [DEMETHOXYCURCUMIN]	200 µg/mL
COc1cc(C)c(C(=O)Oc2cc(C)c(C(=O)O)c(O)c2C)c(OC)c1C [DIFFRACTAIC ACID]	15.6 µg/mL
[C-]#[N+]C(C)(C)C[C@@H]1C[C@H](C)[C@H]2CC[C@H](C)[C@@]3([N+]#[C-])CCC(=C)[C@@H]1[C@H]23 [DIISOCYANOAMPHILECTENE]	2 µg/mL
CSC1=C(CCNC(C)=O)c2nc3ccccc3c3ccnc(c23)C1=O [DIPLAMINE]	17 µM
C=C(C)/C=C/[C@@]12C(=O)C=CC(=O)[C@@]13CC(C)=C[C@@H]2c1cc(O)ccc1O3 [EHRETIQUINONE]	25 µg/mL
O=C1C2=C(C(=O)c3c(O)cccc31)[C@]1(O)C[C@H]2C(=O)c2c(O)cccc21 [ENGELHARQUINONE]	20 µg/mL
CCc1cc(C(N)=S)ccn1 [ETHIONAMIDE]	18 µM
CCOC(=O)CCCCCCCCCCCC[C@@H]1C=CCC1 [ETHYL CHAULMOOGRATE]	9.82 µM
COc1cc(-c2ccc3c(c2)OCO3)nc2ccccc12 [GRAVEOLININE]	16 µg/mL
CC(C)C1=C(O)C(=O)C2=C(C1=O)[C@H](O)C[C@H]1C(C)(C)CCC[C@]21C [HORMINONE]	25 µg/mL
Cl.Nc1ncc(C/C=C/NC(=O)c2cc(Br)c[nH]2)[nH]1 [HYMENIDINE]	6.1 µg/mL
CC(C)=CCc1c(O)ccc(C(=O)/C=C/c2ccc(O)cc2)c1O [ISOBAVACHALCONE]	18 µg/mL
CSc1cnc2c3c(nc4ccccc4c13)C(CCNC(C)=O)=CC2=O [ISODIPLAMINE]	17 µM
COc1c2ccoc2nc2c3c(ccc12)OCO3 [KOKUSAGINE]	16 µg/mL
O=C1c2scnc2-c2nccc3c2c1nc1ccccc13 [KUANONIAMINE A]	10.7 µM
CC(=O)NCCc1c2c3c(ccnc3c3ncsc13)-c1ccccc1N2 [KUANONIAMINE D]	34 µM
CC(=O)NCCc1c2c(c3nccc4c3c1Nc1ccccc1-4)OCS2 [LISSOCLINIDINE]	17 µM
[C-]#[N+][C@@]12CCC(=C)[C@H]3[C@H](CC(C)(C)NC(=O)CN4CCC4=O)C[C@H](C)[C@@H](CC[C@@H]1C)[C@@H]32 [MONAMPHILECTINE A]	15.3 µg/mL
NC1=N[C@@]23CCCN2C(=O)c2[nH]cc(Br)c2[C@@H]3N1 [MONOBROMOISOPHAKELLIN]	64 µg/mL
C/C=C(/NC(=O)c1csc(-c2csc(-c3ccc4c(n3)-c3csc(n3)C(C(C)(O)C(C)O)NC(=O)c3csc(n3)C(C(C)C)NC(=O)c3csc(n3)/C(=C/OC)NC(=O)C(C(C)O)NC(=O)c3csc-4n3)n2)n1)C(=O)OC (configuration not stated) [NOCARDITHIOCIN]	0.025 µg/mL
CCCCCCC1=C(O)CC(CCCCC)OC1=O (configuration not stated) [PSEUDOPYRONINES A]	3.12 µg/mL
COc1cc2ccc(=O)oc2cc1O [SCOPOLETIN]	42 µg/mL
CC(=O)NCCc1c2c(c3nccc4c3c1Nc1ccccc1-4)NC(=O)CS2 [SHERMILAMINE B]	32 µM
C/C=C(C)/C=C(\C)C(O)C(C)[C@H](O)[C@@H](O)[C@H]1C/C=C\C=C\[C@H](O)C[C@@H](O)[C@H](C)c2nc(cs2)/C=C(\CCCCCC)C(=O)O1 (some centres not stated) [THUGGACIN A]	8 µg/mL
C/C(=C\CO)CCC[C@H](C)CCC[C@H](C)CCCC(C)C [TRANS-PHYTOL]	12.5 µg/mL

The compounds below were run on Mycobacterium tuberculosis (assay: Antimycobacterial activity against Mycobacterium tuberculosis H37Ra). Details: not given.
Format: functional

SMILES	MIC
O=C(/C=C/C=C/CC/C=C/c1ccc2c(c1)OCO2)N1CCCC1	25 µg/mL (≈ 76.8 µM)
COc1cc2oc(C)cc(=O)c2c(O)c1CC=C(C)C	50 µg/mL (≈ 182 µM)
CO[C@H]1CC(=O)c2c(O)cccc2[C@H]1O	12.5 µg/mL (≈ 60 µM)
COc1cc(O)c2c(c1)[C@H](O)[C@@H](OC)CC2=O	25 µg/mL (≈ 105 µM)
COC1=CC(=O)c2c(cc(OC)c(C(C)C3=C(O)C(=O)c4cc(O)cc(O)c4C3=O)c2O)C1=O (configuration not stated)	6.25 µg/mL (≈ 13.4 µM)
CCc1c(OC)cc2c(c1O)C(=O)C=C(OC)C2=O	12.5 µg/mL (≈ 47.7 µM)
COc1ccc([C@@]23Oc4cc(OC)cc(OC)c4[C@@](O)(C2O)[C@@H](C(=O)NCCCCNC(=O)c2ccccc2)[C@@H]3c2ccccc2)cc1 (some centres not stated)	25 µg/mL (≈ 38.3 µM)
CCCC/C=C/C#CC#CC(C)CCCCCCC(=O)O (configuration not stated)	25 µg/mL (≈ 86.7 µM)
CCCC/C=C/C#CC#CCCCCCCCC(=O)OCC(O)CO (configuration not stated)	25 µg/mL (≈ 71.7 µM)
COc1c(-c2ccc(O)cc2)oc2c3c(ccc2c1=O)OC(C)(C)[C@H](OC(C)=O)[C@@H]3OC(C)=O	25 µg/mL (≈ 53.4 µM)
COc1ccc2c(=O)c3c(oc2c1)-c1cc2c(cc1CO3)OCO2	6.25 µg/mL (≈ 19.3 µM)
C=C(C)C(=O)O[C@H]1C[C@@]2(C)OC(=CC2=O)C(=C)[C@H](O)[C@H]2OC(=O)C(=C)[C@@H]21	3.1 µg/mL (≈ 8.6 µM)
C=C1C(=O)O[C@H]2[C@H]1[C@@H](OC(=O)/C(C)=C\C)C[C@@]1(C)OC(=CC1=O)C(=C)[C@@H]2O	3.1 µg/mL (≈ 8.28 µM)
C=C1C(=O)O[C@@H]2/C=C(\C(=O)O)CC/C=C(\C)CC[C@@H]12	50 µg/mL (≈ 191 µM)
O=C1CC[C@H](O)c2cc(O)cc(O)c21	12.5 µg/mL (≈ 64.4 µM)
COc1cc2c(cc1OC)-c1c3c(cc4c1[C@@H](C2)NCC4)OCO3	12.5 µg/mL (≈ 38.4 µM)
COc1ccc2c(=O)c(OC)c(-c3ccccc3)oc2c1 [3,7-DIMETHOXYFLAVONE]	50 µg/mL (≈ 177 µM)
O=C1C=C[C@@H]2O[C@H](c3ccccc3)[C@@H](O)[C@@H]2O1 [ALTHOLACTONE]	6.25 µg/mL (≈ 26.9 µM)
CC(=O)O[C@@H]1C[C@H]2C(C)(C)C(=O)C=C[C@]2(C)[C@H]2CC[C@]3(C)C(=CC(=O)[C@H]3c3ccoc3)[C@@]21C [AZADIRADIONE]	6.25 µg/mL (≈ 13.9 µM)
C=C(C)[C@@H]1CC[C@]2(C(=O)O)CC[C@]3(C)[C@H](CC[C@@H]4[C@@]5(C)CC[C@H](O)C(C)(C)[C@@H]5CC[C@]43C)[C@@H]12 [BETULINIC ACID]	25 µg/mL (≈ 54.7 µM)
O=C(/C=C/CCCC/C=C/c1ccc2c(c1)OCO2)N1CCCC1 [BRACHYAMIDE B]	50 µg/mL (≈ 153 µM)
CC(C)CNC(=O)/C=C/C=C/CCCCCCCC/C=C/c1ccc2c(c1)OCO2 [BRACHYSTAMIDE B]	50 µg/mL (≈ 121 µM)
C=C1C(=O)O[C@@H]2/C=C(/CO)C3=CC(=O)[C@@](C)(C[C@H](OC(=O)/C(C)=C\C)[C@@H]12)O3 [CENTRATHERIN]	3.1 µg/mL (≈ 8.28 µM)
C/C=C(\C)C(=O)C1=C2C3=COC(/C=C/[C@@H](C)CC)=CC3=C(Cl)C(=O)[C@@]2(C)OC1=O [CHAETOVIRIDIN E]	50 µg/mL (≈ 121 µM)
O=Cc1cc2c(cc1O)[nH]c1cc(O)ccc12 [CLAUSINE O]	25 µg/mL (≈ 110 µM)
COc1ccc(C/C=C/c2ccc(O)cc2)c(OC)c1O [DALPARVINENE]	50 µg/mL (≈ 175 µM)
COc1cc(OC)c(-c2coc3cc(O)cc(O)c3c2=O)cc1O [DALPARVONE]	50 µg/mL (≈ 151 µM)
COc1ccc2c(=O)c(OC)c(-c3ccc4c(c3)OCO4)oc2c1 [DEMETHOXYKANUGIN]	50 µg/mL (≈ 153 µM)

— ChEMBL document CHEMBL2203104, “Recent advances in antitubercular natural products” (Eur J Med Chem, 2012)
